Test results reported in the supplement of paper PMC10307832.

What was measured:
Assay in all cases: relative viability (nuclei count vs DMSO), 5 days (fraction); higher = more cells survive
AZD8055 + Vorinostat = compound: COc1ccc(-c2ccc3c(N4CCOC[C@@H]4C)nc(N4CCOC[C@@H]4C)nc3n2)cc1CO [AZD8055] + O=C(CCCCCCC(=O)Nc1ccccc1)NO [Vorinostat] (partner 1 µM)
Procedure, shortened: (§1)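 One day after seeding in 1536-well plates, lung cancer cell lines were dosed by pin tool. Dosing was either single-drug or a fixed anchor-drug dose plus five library-drug doses (not always all listed) in √10 steps. After 5 days, nuclei were stained in one fix-and-stain step and counted on 4× images, and relative viability is the nuclei count of treated wells over that of vehicle wells, given as the median of duplicate plates.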

AZD8055 + Alpelisib = compound: COc1ccc(-c2ccc3c(N4CCOC[C@@H]4C)nc(N4CCOC[C@@H]4C)nc3n2)cc1CO [AZD8055] + Cc1nc(NC(=O)N2CCC[C@H]2C(N)=O)sc1-c1ccnc(C(C)(C)C(F)(F)F)c1 [Alpelisib] (partner 2 µM)
Procedure, shortened: as §1

AZD8055 + Linsitinib = compound: COc1ccc(-c2ccc3c(N4CCOC[C@@H]4C)nc(N4CCOC[C@@H]4C)nc3n2)cc1CO [AZD8055] + C[C@]1(O)C[C@@H](c2nc(-c3ccc4ccc(-c5ccccc5)nc4c3)c3c(N)nccn32)C1 [Linsitinib] (partner 1 µM)
Procedure, shortened: as §1

AZD8055 + Navitoclax = compound: COc1ccc(-c2ccc3c(N4CCOC[C@@H]4C)nc(N4CCOC[C@@H]4C)nc3n2)cc1CO [AZD8055] + CC1(C)CCC(c2ccc(Cl)cc2)=C(CN2CCN(c3ccc(C(=O)NS(=O)(=O)c4ccc(N[C@H](CCN5CCOCC5)CSc5ccccc5)c(S(=O)(=O)C(F)(F)F)c4)cc3)CC2)C1 [Navitoclax] (partner 0.5 µM)
Procedure, shortened: as §1

| Cell Line | relative viability (AZD8055 + Vorinostat; first compound 0.01 µM) | relative viability (AZD8055 + Vorinostat; first compound 0.03162 µM) | relative viability (AZD8055 + Vorinostat; first compound 0.1 µM) | relative viability (AZD8055 + Vorinostat; first compound 0.3162 µM) | relative viability (AZD8055 + Vorinostat; first compound 1 µM) | relative viability (AZD8055 + Alpelisib; first compound 0.01 µM) | relative viability (AZD8055 + Alpelisib; first compound 0.03162 µM) | relative viability (AZD8055 + Alpelisib; first compound 0.1 µM) | relative viability (AZD8055 + Alpelisib; first compound 0.3162 µM) | relative viability (AZD8055 + Alpelisib; first compound 1 µM) | relative viability (AZD8055 + Linsitinib; first compound 0.01 µM) | relative viability (AZD8055 + Linsitinib; first compound 0.03162 µM) | relative viability (AZD8055 + Linsitinib; first compound 0.1 µM) | relative viability (AZD8055 + Linsitinib; first compound 0.3162 µM) | relative viability (AZD8055 + Linsitinib; first compound 1 µM) | relative viability (AZD8055 + Navitoclax; first compound 0.01 µM) | relative viability (AZD8055 + Navitoclax; first compound 0.03162 µM) | relative viability (AZD8055 + Navitoclax; first compound 0.1 µM) | relative viability (AZD8055 + Navitoclax; first compound 0.3162 µM) | relative viability (AZD8055 + Navitoclax; first compound 1 µM) |
| --- | --- | --- | --- | --- | --- | --- | --- | --- | --- | --- | --- | --- | --- | --- | --- | --- | --- | --- | --- | --- |
| NCI-H596 | 0.565 | 0.567 | 0.441 | 0.455 | 0.428 | 0.479 | 0.385 | 0.348 | 0.348 | 0.324 | 0.991 | 0.792 | 0.457 | 0.386 | 0.395 | 0.975 | 0.67 | 0.369 | 0.288 | 0.241 |
| NCI-H1793 | 0.567 | 0.387 | 0.271 | 0.188 | 0.224 | 0.605 | 0.347 | 0.224 | 0.175 | 0.17 | 0.539 | 0.315 | 0.224 | 0.197 | 0.18 | 0.363 | 0.288 | 0.205 | 0.229 | 0.163 |
| NCI-H1395 | 0.683 | 0.448 | 0.621 | 0.422 | 0.461 | 1.09 | 0.809 | 0.691 | 0.612 | 0.504 | 1.1 | 0.828 | 0.708 | 0.553 | 0.522 | 1.4 | 0.97 | 0.797 | 0.654 | 0.498 |
| HCC-827 | 0.849 | 0.882 | 0.89 | 0.521 | 0.397 | 0.974 | 0.863 | 0.736 | 0.305 | 0.254 | 0.97 | 0.971 | 0.932 | 0.794 | 0.469 | 1.03 | 0.991 | 1.03 | 0.92 | 0.456 |
| NCI-H2228 | 0.918 | 0.541 | 0.416 | 0.271 | 0.242 | 0.621 | 0.297 | 0.222 | 0.19 | 0.272 | 0.528 | 0.284 | 0.304 | 0.175 | 0.257 | 0.804 | 0.86 | 0.24 | 0.18 | 0.244 |
| EMC-BAC-2 | 0.445 | 0.342 | 0.303 | 0.263 | 0.287 | 0.706 | 0.663 | 0.469 | 0.281 | 0.297 | 0.784 | 0.65 | 0.53 | 0.337 | 0.3 | 1.22 | 1.13 | 1.05 | 0.446 | 0.37 |
| NCI-H23 | 0.44 | 0.457 | 0.449 | 0.235 | 0.251 | 0.668 | 0.604 | 0.406 | 0.268 | 0.269 | 0.521 | 0.484 | 0.294 | 0.244 | 0.259 | 0.879 | 0.847 | 0.677 | 0.318 | 0.253 |
| RERF-LC-KJ | 0.819 | 0.665 | 0.575 | 0.446 | 0.384 | 0.77 | 0.576 | 0.552 | 0.4 | 0.442 | 0.86 | 0.739 | 0.597 | 0.44 | 0.352 | 0.925 | 0.838 | 0.586 | 0.428 | 0.333 |
